Laboratory results reported in patent US6342490B1, “Pharmaceutical composition containing uscharidin or its analogues” (Phyto Corporation Limited, priority 1997, dated 2002).

Experiments:
cancer cell lines = assay: NCI in vitro cell screening (SRB, dose-response); assay type: cell-based; settings: NCI panel, 48 hours
Excerpt: Uscharin was obtained as in Example 2 and was subjected to in vitro cell screening at the National Cancer Institute (NCI), USA in respect of a panel of cancel cell types organised into subpanels representing leukemia, lung cancers, colon cancer, cancer of the central nervous system, melanoma, ovarian cancer, renal cancer, and in some cases prostate cancer and breast cancer also.
The standard NCI methodology which was employed is described in Michael R Boyd, Principles and Practices of Oncology, Vol, 3, No. 10 (October 1989) and Monks A. et al., Journal of the National Cancer Institute, Vol. 83, No. 11, (Jun. 5, 1991).
The Dose-Response Curve is created by plotting the Calculated Percent Growth (PG) of each cell line against the log(10) of the corresponding drug concentration. The cell line curves are grouped by cell type, or subpanel. Mean Log(10) concentrations for all cell lines tested are calculated at three points: where the test compound achieved 50% inhibition of cell growth (GI50), where the test compound achieved 0% cell growth or total growth inhibition (TGI), and where the test compound achiveved 50% cell kill or 50% lethal concentration (LC50). Reference lines are shown at the percent growth values of +50 (GI50), 0 (TGI) and −50 (LC50).
Percentage Growth (PG)—of the compound on a cell line is currently calculated according to one of the following expressions:
If (Mean OD(test)−Mean OD(tzero)>=0,
PG=100×(Mean OD(test)−Mean OD(tzero)/(mean OD(ctrl)−Mean OD(tzero)
If (Mean OD(test−Mean OD(tzero)<0,
PG=100×(Mean OD(test)−Mean OD(tzero)/Mean OD(tzero)
Mean OD (tzero)=The average of optical density measurements of SRB-derived colour just before exposure of cells to the test compound.
Mean OD (test)=The average of optical density measurements of SRB-derived colour after 48 hours […] of cells to the test compound.
Mean OD (ctrl)=The average of optical density measurements of SRB-derived colour after 48 hours […] of cells to the test compound.

SCC-1 cells = assay: Nude mice injected with SCC-1 human tumour cells, drug treatment; assay type: in vivo, mice (BALB/c nude); settings: nude mice with SCC-1 cells; versus control
Method: The SCCI cells (human tumour cell line) where grown (1×10^5/ml seeding density) in 25 ml RPMI 1640 (10% foetal calf serum, 5% glutamine) in 75 cm^2 tissue culture flasks. The cells were harvested at log growth phase (5 days approximately) and washed once in saline before injection into the mice.
The “nude” mice (BALB/c nude) are reared and contained within a sealed isolator. The mice were injected with 1×10^7 cells subcut on the back, right hand side near the shoulder blades. After 7 days the mice were split randomly into the study groups (10-15 animals per group). Each was then treated with a different regime, the variable being time between injections and dose of drug at each injection, control groups were also included in the overall plan of the experiement.
During the trial a daily check was made on the animals and any animal removed if the tumour size became too large (>5-7% total body weight) or if the animal is showing signs of distress. Additional to this the tumour should be assessed every 3-4 days by an independent observer and the result recorded. Once an animal is removed from the study the tumour size, volume and weight was determined and the tumour stored for further cytological study. The reason for the animals removal from the study was also recorded, if this was not due to tumour size. […]

tumour = settings: cited from earlier work
primate tumour cells = settings: cited from earlier work

| Structure (SMILES) | inhibitory effect on the growth of cancer cell lines in vitro (cancer cell lines) | reduction in percentage mortality due to the cancer cells (SCC-1 cells) | in vivo tumour-inhibiting activity (tumour) | cytotoxic activity against primate tumour cells (primate tumour cells) |
| --- | --- | --- | --- | --- |
| C[C@@H]1CC(=O)[C@]2(O)O[C@@H]3C[C@@]4(C=O)[C@@H](CC[C@@H]5[C@@H]4CC[C@]4(C)[C@@H](C6=CC(=O)OC6)CC[C@]54O)C[C@H]3O[C@@H]2O1 [Uscharidin, uscharidin] | inhibitory effect |  |  |  |
| C[C@@H]1C[C@@]2(N=CCS2)[C@]2(O)O[C@@H]3C[C@@]4(C=O)[C@@H](CC[C@@H]5[C@@H]4CC[C@]4(C)[C@@H](C6=CC(=O)OC6)CC[C@]54O)C[C@H]3O[C@@H]2O1 [Uscharin, uscharin] | inhibitory effect | up to 45% |  |  |
| C[C@H]1O[C@H]2O[C@@H]3C[C@@H]4CC[C@@H]5C(CC[C@]6(C)[C@@H](C7=CC(=O)OC7)CC[C@]56O)[C@@]4(C=O)C[C@H]3O[C@@]2(O)[C@H](O)[C@@H]1O (stereo partly shown) [calotoxin] | inhibitory effect |  |  |  |
| C[C@@H]1C[C@H](O)[C@]2(O)O[C@@H]3C[C@@]4(C=O)[C@@H](CC[C@@H]5[C@@H]4CC[C@]4(C)[C@@H](C6=CC(=O)OC6)CC[C@]54O)C[C@H]3O[C@@H]2O1 [calotropin] |  |  | no in vivo tumour-inhibiting activity |  |
| C[C@]12CC[C@H](O)C[C@@H]1CC[C@@H]1[C@@H]2CC[C@]2(C)[C@@H](C3=CC(=O)OC3)CC[C@]12O [uzarigenin] |  |  | no in vivo tumour-inhibiting activity | cytotoxic activity |
